EP1247803A2, “Indolinone compounds suitable for modulation of protein kinases” (Sugen, Inc., priority 1996, dated 1998)

Columns and labels:
EGFR = target: T1, EGFR (Homo sapiens, UniProt P00533); assay: EGFR ELISA assay (in vitro kinase activity, EGFR captured from A431 cell lysate); format: biochemical; set-up: concentration or dose not given beside the values
T1 construct: Add 7 ug A431 cell lysate per well (EGFR source); endogenous in cells; host or cells: A431
Procedure, shortened: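 EGFR from A431 lysate was captured on anti-EGFR antibody-coated plates and preincubated with compounds for 30 min. Autophosphorylation ran 5 min with 3 uM ATP and 5 mM MnCl2 (final), stopped with 20 mM EDTA. Phosphotyrosine was detected by anti-pTyr ELISA with ABTS/H2O2, read at 410 nm.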

PDGF-R = PDGF-R (Homo sapiens, UniProt P09619); assay: PDGF-R ELISA; format: cell-based
Excerpt: A PDGF-R ELISA is described in International Patent Publication No. WO 96/40116, published December 19, 1996 by Tang et al.

PDGF-R, sequence (P09619 33-1106, species assumed): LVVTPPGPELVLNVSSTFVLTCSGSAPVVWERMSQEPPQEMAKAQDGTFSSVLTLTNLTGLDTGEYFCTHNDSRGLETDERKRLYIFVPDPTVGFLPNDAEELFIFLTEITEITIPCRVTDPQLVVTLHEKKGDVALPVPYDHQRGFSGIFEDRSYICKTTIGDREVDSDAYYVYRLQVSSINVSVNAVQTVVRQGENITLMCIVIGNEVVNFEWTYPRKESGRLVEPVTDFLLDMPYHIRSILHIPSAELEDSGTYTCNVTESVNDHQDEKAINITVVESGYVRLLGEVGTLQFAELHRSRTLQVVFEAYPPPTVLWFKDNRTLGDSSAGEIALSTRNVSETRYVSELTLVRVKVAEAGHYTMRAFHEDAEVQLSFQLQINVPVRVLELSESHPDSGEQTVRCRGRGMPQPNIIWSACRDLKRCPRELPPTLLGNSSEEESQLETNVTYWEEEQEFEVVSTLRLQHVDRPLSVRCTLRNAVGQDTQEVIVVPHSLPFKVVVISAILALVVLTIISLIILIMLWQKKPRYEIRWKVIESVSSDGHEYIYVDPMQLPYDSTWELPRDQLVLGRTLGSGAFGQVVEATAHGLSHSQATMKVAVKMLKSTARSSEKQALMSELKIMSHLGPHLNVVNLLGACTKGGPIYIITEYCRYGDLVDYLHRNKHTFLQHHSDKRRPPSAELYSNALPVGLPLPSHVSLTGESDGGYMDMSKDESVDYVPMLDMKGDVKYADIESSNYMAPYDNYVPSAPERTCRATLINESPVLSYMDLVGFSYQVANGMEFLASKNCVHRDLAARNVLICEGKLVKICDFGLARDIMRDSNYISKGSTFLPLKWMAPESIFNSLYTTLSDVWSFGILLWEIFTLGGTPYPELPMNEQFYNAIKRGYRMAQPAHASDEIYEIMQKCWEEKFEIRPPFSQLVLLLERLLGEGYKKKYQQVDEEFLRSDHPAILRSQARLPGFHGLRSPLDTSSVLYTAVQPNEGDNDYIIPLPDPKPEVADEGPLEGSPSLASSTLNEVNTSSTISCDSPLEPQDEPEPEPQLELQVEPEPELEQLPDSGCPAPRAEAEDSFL
T1 sequence (P00533 25-1210): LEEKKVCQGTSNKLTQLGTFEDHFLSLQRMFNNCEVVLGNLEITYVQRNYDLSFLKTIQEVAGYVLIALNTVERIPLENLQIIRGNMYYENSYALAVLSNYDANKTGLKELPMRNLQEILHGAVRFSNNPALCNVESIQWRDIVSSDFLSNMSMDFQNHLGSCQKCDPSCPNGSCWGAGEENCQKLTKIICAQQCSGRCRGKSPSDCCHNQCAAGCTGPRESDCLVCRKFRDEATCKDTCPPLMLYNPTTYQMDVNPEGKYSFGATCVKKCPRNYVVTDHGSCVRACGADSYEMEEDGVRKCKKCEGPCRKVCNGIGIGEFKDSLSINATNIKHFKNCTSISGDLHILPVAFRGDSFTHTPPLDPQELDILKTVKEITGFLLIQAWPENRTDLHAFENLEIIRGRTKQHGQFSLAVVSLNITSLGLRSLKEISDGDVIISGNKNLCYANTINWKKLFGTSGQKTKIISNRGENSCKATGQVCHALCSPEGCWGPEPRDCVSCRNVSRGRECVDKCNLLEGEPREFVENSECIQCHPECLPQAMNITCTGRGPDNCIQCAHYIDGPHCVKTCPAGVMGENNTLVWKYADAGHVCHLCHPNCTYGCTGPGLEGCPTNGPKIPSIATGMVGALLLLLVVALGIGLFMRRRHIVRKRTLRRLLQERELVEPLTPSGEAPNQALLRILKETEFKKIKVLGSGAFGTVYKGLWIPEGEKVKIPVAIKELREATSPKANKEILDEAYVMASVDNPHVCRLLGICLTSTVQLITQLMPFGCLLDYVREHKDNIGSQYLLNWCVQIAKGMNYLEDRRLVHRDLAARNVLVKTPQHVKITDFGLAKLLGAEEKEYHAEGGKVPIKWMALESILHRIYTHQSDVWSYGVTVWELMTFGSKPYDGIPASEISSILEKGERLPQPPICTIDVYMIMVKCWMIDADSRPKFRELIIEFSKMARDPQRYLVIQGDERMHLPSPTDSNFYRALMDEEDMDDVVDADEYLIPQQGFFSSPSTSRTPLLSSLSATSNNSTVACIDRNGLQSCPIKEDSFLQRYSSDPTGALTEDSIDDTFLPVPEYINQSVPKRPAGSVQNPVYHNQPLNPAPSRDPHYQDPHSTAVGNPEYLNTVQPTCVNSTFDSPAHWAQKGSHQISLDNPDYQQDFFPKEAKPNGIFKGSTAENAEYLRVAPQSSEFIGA

| SMILES | Biochem EGFR %Inhibition (EGFR) | PDGF Kinase %Inhibition (PDGF-R) |
| --- | --- | --- |
| CCOc1ccccc1C=C1C(=O)Nc2ccc(I)cc21 [10717/B02] | 31.7% |  |
| O=C1Nc2ccc(I)cc2C1=Cc1cccs1 [10717/B03] | 7.3% |  |
| Cn1cccc1C=C1C(=O)Nc2ccc(I)cc21 [10717/B04] | 10.3% |  |
| O=C1Nc2ccc(I)cc2C1=Cc1ccc(F)cc1 [10717/B05] | 31.7% |  |
| O=C1Nc2ccc(I)cc2C1=Cc1c[nH]c2ccccc12 [10717/B06] | -30.8% |  |
| CCOC(=O)c1c(C)[nH]c(C=C2C(=O)Nc3ccc(S(=O)(=O)N4CCOCC4)cc32)c1C [10718/F02] | 17.8% |  |
| COc1cc(Br)c(O)c(C=C2C(=O)Nc3ccc(S(=O)(=O)N4CCOCC4)cc32)c1 [10718/F03] | 22.5% |  |
| O=C1Nc2ccc(S(=O)(=O)N3CCOCC3)cc2C1=Cc1ccc2ccccc2c1O [10718/F04] | 1.2% |  |
| CCOC(=O)CCc1c(C(=O)OCC)[nH]c(C=C2C(=O)Nc3ccc(S(=O)(=O)N4CCOCC4)cc32)c1CC(=O)OCC [10718/F05] | -4.9% |  |
| CCOC(=O)c1cc(C=C2C(=O)Nc3ccc(S(=O)(=O)N4CCOCC4)cc32)oc1C [10718/F06] | -9.1% |  |
| COC(=O)c1[nH]c(C)c(C=C2C(=O)Nc3ccc(S(=O)(=O)N4CCOCC4)cc32)c1C(=O)OC [10718/F07] | -6.3% |  |
| O=C1Nc2ccc(S(=O)(=O)N3CCOCC3)cc2C1=Cc1ccc(Cl)c([N+](=O)[O-])c1 [10718/F08] | -8.7% |  |
| Cc1c(O)ccc(C=C2C(=O)Nc3ccc(S(=O)(=O)N4CCOCC4)cc32)c1O [10718/F09] | -9.5% |  |
| O=C1Nc2ccc(S(=O)(=O)N3CCOCC3)cc2C1=Cc1ccco1 [10718/F10] | -12.0% |  |
| O=C1Nc2ccc(S(=O)(=O)N3CCOCC3)cc2C1=Cc1ccc([N+](=O)[O-])o1 [10718/F11] | -3.9% |  |
| CCOC(=O)c1c(C)[nH]c(C=C2C(=O)Nc3ccc(CCCl)cc32)c1C [10718/G02] | 49.2% |  |
| COc1cc(Br)c(O)c(C=C2C(=O)Nc3ccc(CCCl)cc32)c1 [10718/G03] | 57.3% |  |
| O=C1Nc2ccc(CCCl)cc2C1=Cc1ccc2ccccc2c1O [10718/G04] | 15.8% |  |
| CCOC(=O)CCc1c(C(=O)OCC)[nH]c(C=C2C(=O)Nc3ccc(CCCl)cc32)c1CC(=O)OCC [10718/G05] | 2.8% |  |
| CCOC(=O)c1cc(C=C2C(=O)Nc3ccc(CCCl)cc32)oc1C [10718/G06] | -18.7% |  |
| COC(=O)c1[nH]c(C)c(C=C2C(=O)Nc3ccc(CCCl)cc32)c1C(=O)OC [10718/G07] | -21.3% |  |
| O=C1Nc2ccc(CCCl)cc2C1=Cc1ccc(Cl)c([N+](=O)[O-])c1 [10718/G08] | -8.3% |  |
| Cc1c(O)ccc(C=C2C(=O)Nc3ccc(CCCl)cc32)c1O [10718/G09] | -15.4% |  |
| O=C1Nc2ccc(CCCl)cc2C1=Cc1ccco1 [10718/G10] | -7.5% |  |

| SMILES | Biochem EGFR %Inhibition (EGFR) | PDGF Kinase %Inhibition (PDGF-R) |
| --- | --- | --- |
| O=C1Nc2ccc(CCCl)cc2C1=Cc1ccc([N+](=O)[O-])o1 [10718/G11] | -4.9% |  |
| CCOc1ccc(C=C2C(=O)Nc3c(Br)cc(Br)cc32)cc1OC [10719/A02] | 43.0% |  |
| O=C1Nc2c(Br)cc(Br)cc2C1=Cc1ccc(O)c(O)c1 [10719/A03] | 67.7% |  |
| COc1ccc(C=C2C(=O)Nc3c(Br)cc(Br)cc32)c(OC)c1 [10719/A04] | 43.7% |  |
| CCc1c(C)[nH]c(C=C2C(=O)Nc3c(Br)cc(Br)cc32)c1C [10719/A05] | 23.1% |  |
| COc1cc(OC)c(C=C2C(=O)Nc3c(Br)cc(Br)cc32)c(OC)c1 [10719/A06] | 18.2% |  |
| O=C1Nc2c(Br)cc(Br)cc2C1=Cc1ccc(O)cc1 [10719/A07] | 15.5% |  |
| CN(C)c1ccc(C=C2C(=O)Nc3c(Br)cc(Br)cc32)cc1 [10719/A08] | 47.3% |  |
| O=C1Nc2c(Br)cc(Br)cc2C1=Cc1ccc(F)cc1Cl [10719/A09] | 2.2% |  |
| O=C1Nc2c(Br)cc(Br)cc2C1=Cc1cccc([N+](=O)[O-])c1 [10719/A10] | 8.2% |  |
| O=C1Nc2c(Br)cc(Br)cc2C1=Cc1ccc(F)cc1C(F)(F)F [10719/A11] | 10.5% |  |
| CCOc1ccc(C=C2C(=O)Nc3ccc(I)cc32)cc1OC [10719/B02] | 29.0% |  |
| O=C1Nc2ccc(I)cc2C1=Cc1ccc(O)c(O)c1 [10719/B03] | 59.5% |  |
| COc1ccc(C=C2C(=O)Nc3ccc(I)cc32)c(OC)c1 [10719/B04] | 29.9% |  |
| CCc1c(C)[nH]c(C=C2C(=O)Nc3ccc(I)cc32)c1C [10719/B05] | 35.9% |  |
| COc1cc(OC)c(C=C2C(=O)Nc3ccc(I)cc32)c(OC)c1 [10719/B06] | -0.5% |  |
| O=C1Nc2ccc(I)cc2C1=Cc1ccc(O)cc1 [10719/B07] | 23.7% |  |
| CN(C)c1ccc(C=C2C(=O)Nc3ccc(I)cc32)cc1 [10719/B08] | 42.3% |  |
| O=C1Nc2ccc(I)cc2C1=Cc1ccc(F)cc1Cl [10719/B09] | -17.7% |  |
| O=C1Nc2ccc(I)cc2C1=Cc1cccc([N+](=O)[O-])c1 [10719/B10] | -1.2% |  |
| O=C1Nc2ccc(I)cc2C1=Cc1ccc(F)cc1C(F)(F)F [10719/B11] | -23.9% |  |
| CCOc1ccc(C=C2C(=O)Nc3ccc(Br)c(C)c32)cc1OC [10719/C02] | 10.2% |  |
| Cc1c(Br)ccc2c1C(=Cc1ccc(O)c(O)c1)C(=O)N2 [10719/C03] | 60.6% |  |
| COc1ccc(C=C2C(=O)Nc3ccc(Br)c(C)c32)c(OC)c1 [10719/C04] | 14.4% |  |

| SMILES | Biochem EGFR %Inhibition (EGFR) | PDGF Kinase %Inhibition (PDGF-R) |
| --- | --- | --- |
| CCc1c(C)[nH]c(C=C2C(=O)Nc3ccc(Br)c(C)c32)c1C [10719/C05] | 27.4% |  |
| COc1cc(OC)c(C=C2C(=O)Nc3ccc(Br)c(C)c32)c(OC)c1 [10719/C06] | -14.3% |  |
| Cc1c(Br)ccc2c1C(=Cc1ccc(O)cc1)C(=O)N2 [10719/C07] | 14.4% |  |
| Cc1c(Br)ccc2c1C(=Cc1ccc(N(C)C)cc1)C(=O)N2 [10719/C08] | -10.2% |  |
| Cc1c(Br)ccc2c1C(=Cc1ccc(F)cc1Cl)C(=O)N2 [10719/C09] | -0.1% |  |
| O=C1Nc2ccc(S(=O)(=O)Nc3ccc(C(F)(F)F)cc3)cc2C1=Cc1cc(Cl)ccc1O [10734/E04] | -7.8% | 26.7% |
| CCN(CC)c1ccc(C=C2C(=O)Nc3ccc(S(=O)(=O)Nc4ccc(C(F)(F)F)cc4)cc32)c(O)c1 [10734/E05] | 7.9% | 17.9% |
| O=C1Nc2ccc(S(=O)(=O)Nc3ccc(C(F)(F)F)cc3)cc2C1=Cc1ccc([N+](=O)[O-])cc1 [10734/E06] | 6.3% | 13.5% |
| O=C1Nc2ccc(S(=O)(=O)Nc3ccc(C(F)(F)F)cc3)cc2C1=Cc1cc(Br)cc(Br)c1O [10734/E07] | 82.4% | 8.2% |
| O=C1Nc2ccc(S(=O)(=O)Nc3ccc(C(F)(F)F)cc3)cc2C1=Cc1cccc(F)c1O [10734/E08] | 24.2% | 13.0% |
| O=C1Nc2ccc(S(=O)(=O)Nc3ccc(C(F)(F)F)cc3)cc2C1=Cc1ccc(O)c(Br)c1 [10734/E09] | 73.0% | 1.1% |
| CC(C)(C)c1ccc(C=C2C(=O)Nc3ccc(S(=O)(=O)Nc4ccc(C(F)(F)F)cc4)cc32)cc1 [10734/E10] | -5.0% | 29.8% |
| O=C1Nc2ccc(S(=O)(=O)Nc3ccc(C(F)(F)F)cc3)cc2C1=Cc1ccc(Br)s1 [10734/E11] | -8.0% | 16.1% |
| CCOc1cccc(C=C2C(=O)Nc3ccc(S(=O)(=O)N4CCOCC4)cc32)c1O [10734/F02] | 0.7% | 10.4% |
| O=C1Nc2ccc(S(=O)(=O)N3CCOCC3)cc2C1=Cc1cc(Cl)cc(Cl)c1O [10734/F03] | 24.8% | -24.1% |
| O=C1Nc2ccc(S(=O)(=O)N3CCOCC3)cc2C1=Cc1cc(Cl)ccc1O [10734/F04] | 3.9% | 25.0% |
| CCN(CC)c1ccc(C=C2C(=O)Nc3ccc(S(=O)(=O)N4CCOCC4)cc32)c(O)c1 [10734/F05] | -15.6% | -1.1% |
| O=C1Nc2ccc(S(=O)(=O)N3CCOCC3)cc2C1=Cc1ccc([N+](=O)[O-])cc1 [10734/F06] | -17.1% | -21.4% |
| O=C1Nc2ccc(S(=O)(=O)N3CCOCC3)cc2C1=Cc1cc(Br)cc(Br)c1O [10734/F07] | 33.7% | -5.1% |
| O=C1Nc2ccc(S(=O)(=O)N3CCOCC3)cc2C1=Cc1cccc(F)c1O [10734/F08] | -23.6% | -6.0% |
| O=C1Nc2ccc(S(=O)(=O)N3CCOCC3)cc2C1=Cc1ccc(O)c(Br)c1 [10734/F09] | 3.1% | -17.4% |
| CC(C)(C)c1ccc(C=C2C(=O)Nc3ccc(S(=O)(=O)N4CCOCC4)cc32)cc1 [10734/F10] | -8.3% | 25.8% |
| CCOc1cccc(C=C2C(=O)Nc3ccc(CCCl)cc32)c1O [10734/G02] | 3.4% | 14.8% |
| O=C1Nc2ccc(CCCl)cc2C1=Cc1cc(Cl)cc(Cl)c1O [10734/G03] | 82.8% | -3.8% |
